Data reported in patent US10174013B2, “Benzimidazole derivatives as kinase inhibitors” (SELVITA S.A., priority 2012, dated 2019).
pIC50: −log10 of the molar value. Where two headings read alike, the source gives them in different places.

Key:
Jeko-1 cells = experiment: Growth inhibition, MTS assay, Jeko-1; assay type: cell-based, Human; details: 72 hours, MTS cell viability, read-out: Jeko-1 ED50; for pIC50: Homo sapiens, JeKo-1
Pim-1 = Pim-1 (Homo sapiens (Human), UniProt P11309); experiment: ADP-Glo Kinase Assay, Pim-1; assay type: biochemical; details: 1 μM compound; for inhibition at 1 µM: read-out: Pim-1 % INH (1 μM)
Pim-1, sequence (P11309 whole entry): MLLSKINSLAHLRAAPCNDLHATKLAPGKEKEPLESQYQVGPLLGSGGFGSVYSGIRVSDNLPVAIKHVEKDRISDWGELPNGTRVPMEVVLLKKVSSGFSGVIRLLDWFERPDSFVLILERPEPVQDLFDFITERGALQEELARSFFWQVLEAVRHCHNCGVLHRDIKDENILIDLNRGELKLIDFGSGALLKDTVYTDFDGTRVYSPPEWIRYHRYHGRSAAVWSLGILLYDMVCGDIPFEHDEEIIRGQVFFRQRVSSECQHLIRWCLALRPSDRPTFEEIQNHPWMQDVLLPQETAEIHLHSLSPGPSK
Summary of the method: (§1)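 ADP-Glo luminescent ADP detection of human kinase activity in 5 mM MOPS pH 7.5, 5 mM MgCl2, 0.4 mM EDTA, 1.5 mM DTT. ATP at each kinase's apparent Km; compounds diluted to 1000 nM in assay buffer. Percent inhibition from normalised luminescence.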

Pim-2 = Pim-2 (Homo sapiens (Human), UniProt Q9P1W9); experiment: ADP-Glo Kinase Assay, Pim-2; assay type: biochemical; details: 1 μM compound; for inhibition at 1 µM: read-out: Pim-2 % INH (1 μM)
Pim-2, sequence (Q9P1W9 whole entry): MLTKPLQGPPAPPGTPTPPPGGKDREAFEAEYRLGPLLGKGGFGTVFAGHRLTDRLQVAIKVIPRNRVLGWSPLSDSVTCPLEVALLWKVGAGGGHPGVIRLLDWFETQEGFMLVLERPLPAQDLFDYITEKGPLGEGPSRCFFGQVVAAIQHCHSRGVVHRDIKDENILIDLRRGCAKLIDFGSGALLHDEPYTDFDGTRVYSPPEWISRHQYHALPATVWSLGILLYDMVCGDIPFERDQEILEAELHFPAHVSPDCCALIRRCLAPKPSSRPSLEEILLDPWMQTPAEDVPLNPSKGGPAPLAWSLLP
Summary of the method: as §1

CYP3A4 = CYP3A4 (Homo sapiens (Human), UniProt P08684); experiment: Cytochrome P450 inhibition, fluorescence, CYP3A4; assay type: in vitro ADME; details: recombinant CYP3A4, fluorescence detection; read-out: CYP inhibition (CYP 3A4 screening, IC50 class)
CYP3A4, sequence (P08684 whole entry, canonical isoform): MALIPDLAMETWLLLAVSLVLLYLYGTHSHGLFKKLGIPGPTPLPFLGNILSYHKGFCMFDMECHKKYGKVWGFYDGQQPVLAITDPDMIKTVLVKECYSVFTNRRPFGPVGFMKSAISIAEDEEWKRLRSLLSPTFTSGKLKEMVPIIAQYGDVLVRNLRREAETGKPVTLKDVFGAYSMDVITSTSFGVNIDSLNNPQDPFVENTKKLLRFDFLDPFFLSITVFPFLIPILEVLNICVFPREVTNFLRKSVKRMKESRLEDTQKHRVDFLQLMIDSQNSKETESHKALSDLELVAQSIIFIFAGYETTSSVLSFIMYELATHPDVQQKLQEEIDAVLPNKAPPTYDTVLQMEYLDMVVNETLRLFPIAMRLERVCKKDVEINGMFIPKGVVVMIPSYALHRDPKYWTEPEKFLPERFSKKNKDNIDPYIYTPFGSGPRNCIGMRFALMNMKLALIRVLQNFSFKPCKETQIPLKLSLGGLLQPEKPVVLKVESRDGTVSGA
Description: The assays for cytochrome P450 inhibition facilitate the identification of drug candidates with lower potential for drug-drug interactions (weak enzymes inhibitors). In vitro experiments were conducted to determine whether a drug inhibits a specific CYP enzyme. The experiments comprised the incubation of the drug with probe substrates for the CYP enzymes, wherein the following recombinant cytochrome P450 isoforms were employed: CYP1A2, CYP2C8, CYP2C9, CYP2C19, CYP2D6 and CYP3A4, together with various probe substrates enabling fluorescence detection. The protocol uses a single substrate concentration near the apparent Km and multiple compound concentrations.
The assay was performed in 96-well microtiter plates. The row designations were A through H and the column designations were 1 through 12. […] Each compound (see Table 6 for tested compounds) was added to the wells in column 1 and serially diluted to the wells in column 8. Wells 9 and 10 were control wells which contained no test compound (therefore no inhibition-full signal is detected.) The wells in columns 11 and 12 were blanks, where STOP solution was added prior to the addition of the enzyme/substrate mix to the NADPH regenerating system (the only signal present in these wells is background noise.) The assay was conducted in a final volume of 0.2 ml per well.
The stock solutions of the tested compounds were prepared in DMSO at 10 mM concentration. […] After mixing the compounds with solution containing NADPH-cofactors, the mixed plate was preincubated in a 37° C. incubator for at least 10 minutes; next, the fluorescence of compounds using recommended excitation/emission filters was measured in order to eliminate false results originating from autofluorescence of the compounds. In the following step, the enzyme/substrate mix was added to columns 1 through 10 and the plates were incubated at 37° C. for specific times depending on the CYP tested (incubation times ranged from 30 to 45 minutes). After adding STOP SOLUTION to all wells and respective enzyme/substrate mix to the wells in columns 11 and 12, the plate was scanned with a fluorescent plate scanner. The excitation/emission filters used for the specific assays are described in the GenTest Screening Kit instruction manual.

MV4-11 cells = experiment: Growth inhibition, MTS assay, MV4-11; assay type: cell-based, Human; details: MTS cell viability, read-out: MV4-11 ED50; for IC50: 72 hours; for pIC50: Homo sapiens, MV4-11, 72 h
HepG2 cells = experiment: Growth inhibition, MTS assay, HepG2; assay type: cell-based, Human; details: MTS cell viability, read-out: HepG2 ED50; for IC50: 72 hours; for pIC50: Homo sapiens, HepG2, 72 h
hERG potassium channel = hERG potassium channel (Homo sapiens (Human), UniProt Q12809); experiment: hERG automated patch clamp assay (QPatch HT)
hERG potassium channel, sequence (Q12809 whole entry): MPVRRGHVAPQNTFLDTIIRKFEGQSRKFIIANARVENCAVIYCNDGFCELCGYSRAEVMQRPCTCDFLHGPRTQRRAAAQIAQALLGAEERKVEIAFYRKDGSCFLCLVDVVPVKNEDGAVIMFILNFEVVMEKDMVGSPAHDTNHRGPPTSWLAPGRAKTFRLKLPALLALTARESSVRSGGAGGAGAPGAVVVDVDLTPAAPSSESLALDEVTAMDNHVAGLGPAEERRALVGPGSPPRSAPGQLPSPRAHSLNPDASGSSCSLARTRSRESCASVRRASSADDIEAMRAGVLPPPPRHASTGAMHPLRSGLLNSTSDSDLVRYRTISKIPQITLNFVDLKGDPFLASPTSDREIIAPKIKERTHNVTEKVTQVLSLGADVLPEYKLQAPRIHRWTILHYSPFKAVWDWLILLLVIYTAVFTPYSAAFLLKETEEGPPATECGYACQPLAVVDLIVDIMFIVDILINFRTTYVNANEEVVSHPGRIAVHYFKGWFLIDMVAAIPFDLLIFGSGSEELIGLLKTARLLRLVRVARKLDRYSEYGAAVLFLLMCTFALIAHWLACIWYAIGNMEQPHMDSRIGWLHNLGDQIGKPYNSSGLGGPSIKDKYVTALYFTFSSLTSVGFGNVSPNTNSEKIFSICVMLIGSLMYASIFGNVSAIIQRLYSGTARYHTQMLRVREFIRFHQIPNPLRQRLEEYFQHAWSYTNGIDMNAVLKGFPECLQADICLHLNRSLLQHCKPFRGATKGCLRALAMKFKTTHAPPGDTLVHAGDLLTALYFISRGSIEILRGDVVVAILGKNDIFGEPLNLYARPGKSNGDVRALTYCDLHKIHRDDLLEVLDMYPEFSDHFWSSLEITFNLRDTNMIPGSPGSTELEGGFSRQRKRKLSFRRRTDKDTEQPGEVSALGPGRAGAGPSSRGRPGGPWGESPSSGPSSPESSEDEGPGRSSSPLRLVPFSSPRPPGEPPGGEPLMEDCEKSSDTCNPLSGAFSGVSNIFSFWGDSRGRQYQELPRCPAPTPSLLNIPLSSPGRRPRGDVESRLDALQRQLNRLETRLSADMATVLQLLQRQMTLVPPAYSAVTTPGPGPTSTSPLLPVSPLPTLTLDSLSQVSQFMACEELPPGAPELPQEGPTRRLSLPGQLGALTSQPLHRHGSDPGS
Description: The hERG (human ether-A-go-go-related gene) channel corresponds to an important anti-target for potential new drugs since its inhibition may lead to sudden death. In order to establish whether the compounds of the present invention act on hERG, the following experiment was carried out.
The in vitro effects of the compounds indicated in Table 5 on the hERG potassium channel current (a surrogate for Iκr, the rapidly activating, delayed rectifier cardiac potassium current) expressed in mammalian cells were evaluated at room temperature using the QPatch HT® (Sophion Bioscience A/S, Denmark), an automatic parallel patch clamp system. Each compound indicated in Table 5 was evaluated at 0.1, 1, 3, 10 and 30 μM with each concentration tested in a minimum of two cells (n≥2). The duration of exposure to each compound concentration was 3 minutes.

CDK2/E = CDK2/E (Homo sapiens (Human), UniProt P24941); experiment: ADP-Glo Kinase Assay, CDK2/E; assay type: biochemical; details: 1 μM compound; for inhibition at 1 µM: read-out: CDK2/E % INH (1 μM)
Summary of the method: as §1

FLT3wt = FLT3wt (Homo sapiens (Human), UniProt P36888); experiment: ADP-Glo Kinase Assay, Flt3 wt; assay type: biochemical; details: 1 μM compound; for inhibition at 1 µM: read-out: Flt3wt % INH (1 μM)
FLT3wt, sequence (P36888 27-993): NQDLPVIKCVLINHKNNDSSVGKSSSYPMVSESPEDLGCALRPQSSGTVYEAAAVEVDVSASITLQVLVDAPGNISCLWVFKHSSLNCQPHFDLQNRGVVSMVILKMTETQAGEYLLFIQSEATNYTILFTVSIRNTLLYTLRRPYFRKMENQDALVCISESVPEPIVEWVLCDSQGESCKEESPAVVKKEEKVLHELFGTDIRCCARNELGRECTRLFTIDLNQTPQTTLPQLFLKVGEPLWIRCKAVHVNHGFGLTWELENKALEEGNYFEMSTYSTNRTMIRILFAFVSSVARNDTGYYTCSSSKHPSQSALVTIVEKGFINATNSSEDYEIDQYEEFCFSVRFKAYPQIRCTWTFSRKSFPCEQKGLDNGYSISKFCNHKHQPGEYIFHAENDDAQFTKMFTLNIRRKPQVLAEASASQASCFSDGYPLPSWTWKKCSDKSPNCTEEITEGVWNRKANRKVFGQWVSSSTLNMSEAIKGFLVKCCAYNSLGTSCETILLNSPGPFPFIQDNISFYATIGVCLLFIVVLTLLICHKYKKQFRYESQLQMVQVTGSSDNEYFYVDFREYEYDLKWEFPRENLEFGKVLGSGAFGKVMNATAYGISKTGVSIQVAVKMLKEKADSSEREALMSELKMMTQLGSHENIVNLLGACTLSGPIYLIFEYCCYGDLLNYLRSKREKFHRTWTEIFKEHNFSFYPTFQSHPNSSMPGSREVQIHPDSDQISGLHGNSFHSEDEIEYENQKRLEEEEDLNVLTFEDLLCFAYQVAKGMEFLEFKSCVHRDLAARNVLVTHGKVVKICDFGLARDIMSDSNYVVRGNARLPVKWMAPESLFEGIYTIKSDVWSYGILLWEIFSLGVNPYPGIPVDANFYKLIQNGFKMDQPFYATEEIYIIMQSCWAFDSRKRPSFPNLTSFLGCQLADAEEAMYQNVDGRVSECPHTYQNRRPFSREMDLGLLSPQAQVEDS
Summary of the method: as §1

DYRK1 = DYRK1 (Homo sapiens (Human), UniProt Q13627); experiment: ADP-Glo Kinase Assay, DYRK1; assay type: biochemical; details: 1 μM compound; for inhibition at 1 µM: read-out: DYRK1A % INH (1 μM)
Summary of the method: as §1

Pim-3 = Pim-3 (Homo sapiens (Human), UniProt Q86V86); experiment: ADP-Glo Kinase Assay, Pim-3; assay type: biochemical; details: 1 μM compound; for inhibition at 1 µM: read-out: Pim-3 % INH (1 μM)
Summary of the method: as §1

SW-480 cells = experiment: Growth inhibition, MTS assay, SW-480; assay type: cell-based, Human; details: 72 hours, MTS cell viability; read-out: SW-480 ED50
HEL92 cells = experiment: Growth inhibition, MTS assay, HEL92; assay type: cell-based, Human; details: MTS cell viability, read-out: HEL92 ED50; for IC50: 72 hours; for pIC50: Homo sapiens, 72 h
MOLM13 cells = experiment: Growth inhibition, MTS assay, MOLM13; assay type: cell-based, Human; details: 72 hours, MTS cell viability, read-out: MOLM 13 ED50; for pIC50: Homo sapiens, MOLM-13
Text: (§2) The following cell lines, were obtained and used in tests as outlined below: • Human myelomonocytic, biphenotypic leukemia MV4-11 cells (harboring a Flt3-ITD mutation); • Human Acute Myeloid Leukemia MOLM16 cells; • Human Acute Myeloid Leukemia MOLM13 cells (harboring a Flt3-ITD mutation); • Human Myeloid Leukemia KG-1 cells; • Human erythroleukemia HEL92 cells; • Human mantle cell lymphoma Jeko-1 cells; • Human hepatocellular carcinoma HepG2 cells; and • Human colon adenocarcinoma SW-480 cells.
(§3) The assays were carried out according to the following protocol, which is described as an example for the MV4-11 cells:
(§4) Ten thousand MV4-11 cells were inoculated into each well of a 96-well microplate (manufactured by Corning Corp.) using Iscove's MDM medium (culture medium) containing 10% fetal calf serum (FCS). The same day, a dimethyl sulfoxide (DMSO) solution of each test compound prepared in a concentration of 10 mmol/L was further diluted with DMSO to the desired concentrations (0.1, 0.5, 1, 2.5, 5 and 10 micromol/L), and the diluted solution was added to each well. The individual wells were further cultured in 5% carbon dioxide at 37° C. for 72 hours. […] Briefly, 10 μl MTS (3-(4,5-Dimethyl-2-thiazolyl)-5-(carboxymethoxyphenyl)-2-(4-sulfophenyl)-2H-tetrazolium was added to each well, and culturing was performed in 5% carbon dioxide at 37° C. for 2 hours. After this incubation and using a microplate spectrophotometer (Synergy 2 multi-mode microplate reader (BioTek)), the absorbance of each well was measured at 490 nm. The value for cells not incubated with a test compound was designated as 100%. By comparing these values with the absorbance difference obtained at the well in which each test compound was added, the cell viability (% viability) after treatment with the test compound was calculated.

MOLM16 cells = experiment: Growth inhibition, MTS assay, MOLM16; assay type: cell-based, Human; details: Homo sapiens, MOLM16, 72 h, MTS cell viability, read-out: MOLM 16 ED50
Text: as §2, §3, §4

KG-1 cells = experiment: Growth inhibition, MTS assay, KG-1; assay type: cell-based, Human; details: 72 hours, MTS cell viability
Text: as §2, §3, §4

Compound	Pim-1 % INH (1 μM) (Pim-1) [%]	Pim-2 % INH (1 μM) (Pim-2) [%]	pIC50 (CYP3A4)	IC50 (MV4-11 cells) [nM]	IC50 (HepG2 cells) [nM]	CDK2/E % INH (1 μM) (CDK2/E) [%]	Flt3wt % INH (1 μM) (FLT3wt) [%]	DYRK1A % INH (1 μM) (DYRK1) [%]	Pim-3 % INH (1 μM) (Pim-3) [%]	IC50 (HEL92 cells) [nM]	pIC50 (MOLM16 cells)	inhibition at 1 µM (Pim-1) [%]	inhibition at 1 µM (Pim-2) [%]	pIC50 (MV4-11 cells)	pIC50 (HepG2 cells)	inhibition at 1 µM (CDK2/E) [%]	inhibition at 1 µM (FLT3wt) [%]	inhibition at 1 µM (DYRK1) [%]	inhibition at 1 µM (Pim-3) [%]	pIC50 (MOLM13 cells)	other results
CCn1c(N[C@H]2CCCNC2)nc2c([N+](=O)[O-])c(Br)c(Br)cc21 [Example 1AA]	>95	53	5.48 to 5.96	1300	2100	<5	11	40	>95	4600	–	–	–	–	–	–	–	–	–	–	IC50 (Jeko-1 cells): 1800 nM; pIC50 (hERG potassium channel): 5.64; IC50 (SW-480 cells): 5500 nM
CC(C)n1c(N2CC[C@@H](N)C2)nc2c([N+](=O)[O-])c(Br)c(Br)cc21 [Example 1AY]	>95	89	–	500	1500	–	60	87	>95	1900	–	–	–	–	–	–	–	–	–	–	IC50 (MOLM13 cells): 900 nM
COCCn1c(N2CCNCC2)nc2c([N+](=O)[O-])c(Br)c(Br)cc21 [Example 1BB]	>95	12	–	700	2000	29	33	61	65	5400	–	–	–	–	–	–	–	–	–	–	IC50 (MOLM13 cells): 3000 nM
CC(C)n1c(N[C@H]2CCNC2)nc2c([N+](=O)[O-])c(Br)c(Br)cc21 [Example 1BD]	>95	65	< 5.00	700	3300	<5	28	53	88	5500	–	–	–	–	–	–	–	–	–	–	IC50 (Jeko-1 cells): 1600 nM; pIC50 (hERG potassium channel): 5.36; IC50 (MOLM13 cells): 2100 nM
CC(C)n1c(NC2CCNC2)nc2c(C#N)c(Br)c(Br)cc21 (stereo not drawn) [Example 1BK]	>95	63	< 5.00	800	5200	<5	20	48	92	–	7.22	–	–	–	–	–	–	–	–	–	–
CC(C)n1c(N2CCNCC2)nc2c(C#N)c(Br)c(Br)cc21 [Example 1BL]	–	–	–	–	–	–	–	–	–	–	–	> 95	33	6.40	5.85	7	54	75	81	6.00	pIC50 (HEL92 cells): 5.62
CCn1c(N2CCC[C@H](N)C2)nc2c(C#N)c(Br)c(Br)cc21 [Example 1DQ]	–	–	–	–	–	–	–	–	–	–	7.00	> 95	53	6.05	5.85	< 5	< 5	38	86	5.55	pIC50 (Jeko-1 cells): 5.80; pIC50 (HEL92 cells): 5.12; KG-1 ED50 (KG-1 cells): 500 nM
CCn1c(N2CCC(N)CC2)nc2c(C#N)c(Br)c(Br)cc21 [Example 1DS]	–	–	–	–	–	–	–	–	–	–	6.49	> 95	54	6.10	6.22	47	8	23	–	5.00	pIC50 (Jeko-1 cells): 5.85; pIC50 (HEL92 cells): 5.24; KG-1 ED50 (KG-1 cells): 200 nM
CC(C)n1c(NC2CCC(N)CC2)nc2c(C#N)c(Br)c(Br)cc21 (stereo not drawn) [Example 1DY]	–	–	–	–	–	–	–	–	–	–	5.96	> 95	18	5.64	–	7	< 5	20	62	5.19	pIC50 (Jeko-1 cells): 5.55; KG-1 ED50 (KG-1 cells): 1900 nM
COC(CN)CNc1nc2c([N+](=O)[O-])c(Br)c(Br)cc2n1C(C)C (stereo not drawn) [Example 22AB, N-(3-amino-2-methoxypropyl)-5,6-dibromo-4-nitro-1-(propan-2-yl)-1H-1,3-benzodiazol-2-amine]	–	–	5.00 to 5.48	–	–	–	–	–	–	–	–	> 95	31	5.49	5.29	< 5	< 5	17	76	–	pIC50 (hERG potassium channel): 5.69
